Assays:
[1] = tested on: E13.5 cortical embryonic mouse CNS stem cells; experiment: CNS stem cell plating efficiency / colony formation / survival; assay type: cell-based
Method: (§1) Cell culture: E13.5 cortical embryonic mouse and adult rat subventricular zone CNS stem cells were grown as previously described (Johe et al., Genes Dev 10:3129-40, 1996; Rajan et al., J Neurosci 18:3620-9, 1998). Cells were expanded in serum-free DMEM/F12 medium with N2 supplement with FGF2 (20 ng/ml) for 5 days and were re-plated at 1000-10,000 cells per cm^2. FGF2 was included throughout our experiments, unless otherwise stated.
To explore these paradoxical observations, CNS stem cell cultures from mid-gestation (embryonic day 13.5) mouse dorsal telencephalon were treated with soluble Notch ligands. […] Following initial passaging, the cells were plated at a density of 1000 cells/cm^2, cultured for 5 days in the presence of FGF2, and colony numbers, sizes, and BrdU incorporation (after a 4 hour BrdU pulse) were enumerated. Notch activation by Jagged-1 or Delta-4 (200 ng/ml) increased the number of colonies generated in vitro by over 3-fold (FIG. 1a). […] The effects of Notch activation were most dramatic when treatments were initiated at the start of the culture.
Insulin in the medium is also thought to promote cell survival. […] Seeding cells in the absence of insulin caused the plating efficiency measured at five days to drop to 29.9%±37.9 (FIG. 1e). Delta-4 was able to compensate for the lack of insulin in the medium, and restored plating efficiency (125%±19.4). Because Notch activation improved survival, activation of Akt, a ser/threonine kinase known to be involved in cell survival, was assayed. Notch activation rapidly (5 minutes) promoted the phosphorylation of Akt on Ser473 and […] in both the presence and absence of insulin (FIG. 1f).

STAT3 = STAT3 phosphorylation (Ser727, Tyr705) immunoblot in CNS stem cells; assay type: cell-based, mouse
Excerpt: Ligands that activate JAK/STAT signaling promote astrocytic differentiation of CNS stem cells (Johe et al., Genes Dev 10:3129-40, 1996; Raj an et al., J Neurosci 18:3620-9, 1998; Bonni et al., Science 278:477-83, 1997; Song et al., Nat Neurosci 7:229-35, 2004; He et al., Nat Neurosci 8:616-625, 2005). When applying CNTF to CNS stem cells it was noted that low concentrations of CNTF stimulated survival but not expression of astrocyte specific genes. This is consistent with previous observations of Akt phosphorylation downstream of gp130 activation (Taga et al., Annu Rev Immunol 15:797-819, 1997). […] At high concentrations (20 ng/ml) the phosphorylation of Tyr705 can be blocked by an inhibitor of JAK while allowing a CNTF-induced increase in Ser727 phosphorylation (FIG. 2B) (Thompson et al., Bioorg Med Chem Lett 12:1219-23, 2002).
CNTF was used as a positive control; CNTF, induced the phosphorylation on both sites. With both CNTF and Notch activation, phosphorylation peaked at around 30 min. STAT3 phosphorylation on Ser727 following Notch activation was sensitive to the γ-secretase inhibitor DAPT (FIG. 2e). […] In contrast to CNTF, no Tyr705 phosphorylation was detected at any of the doses of Notch receptor ligands.
It was determined that insulin also maintains phosphorylation of serine 727 in STAT3 in foetal neural stem cell cultures.

mES (D3) cells = experiment: mES cell plating efficiency, Oct4 and STAT3 phosphorylation in the presence of LIF; assay type: cell-based, mouse; conditions: for Oct4 expression: five day treatments in the presence of LIF; for cell survival in a plating efficiency assay: in the presence of LIF
Excerpt: FIGS. 10a-10c are a set of images showing JAK inhibition reduces the phosphorylation of STAT3 on Ser727 in mES cell cultures. […] Very low levels of phosphorylated p38 were detectable under all conditions. […] Self-renewal of mES cells correlated with Ser727 phosphorylation.
mES (D3) cells were obtained from ATCC and were maintained in feeder-free cultures on gelatin-coated plates supplemented with 1400 units/ml LIF.
There is great interest in conditions that support the growth of mouse and human ES cells. In contrast to CNS SC (FIG. 2, FIG. 3) and hES SC (se below), the growth of undifferentiated mouse ES cells depends on the stimulation of the JAK/STAT pathway and STAT3 phosphorylation on Tyr705 has been specifically shown to be essential for self-renewal of mouse ES cells (Niwa et al., Genes Dev 12:2048-60, 1998; Matsuda et al., Embo J 18:4261-9, 1999). Ligands that stimulate the JAK/STAT pathway cause human ES cells to differentiate (Daheron et al., Stem Cells 22:770-8, 2004; Humphrey et al., Stem Cells 22:522-30, 2004). It was determined if the Notch/sSTAT survival pathway is present in mouse or human ES cells.

adult rat SVZ stem cells = experiment: Adult SVZ stem cell plating efficiency and colony size; assay type: cell-based
Method: as §1
Very little protein or mRNA were detected outside the SVZ (FIG. 4g). Adult CNS stem cells can be cultured as a monolayer in vitro (FIG. 4h) and they show similar responses to extracellular signals that regulate stem cell differentiation upon withdrawal of the mitogen that sustains the undifferentiated state (Johe et al., Genes Dev 10:3129-40, 1996). To ask if Notch activation promotes survival in rat adult SVZ cultures, isolated cells were grown in the presence of FGF2 with and without Delta-4 for one week. […] When FGF2 was withdrawn for a week, cells at clonal density generated all three CNS lineages (FIG. 8C, Table 4).

Hes3 = Hes3 expression (RT-PCR, immunohistochemistry) in CNS stem cells; assay type: cell-based, mouse; conditions: for Hes3 mRNA levels: CNTF 20 ng/ml
Method: RT-PCR: For reverse-transcriptase PCR analysis, RNA was extracted from cell cultures or brain homogenates with Trizol (Invitrogen, 15596-026), and PCR reactions were performed with the ProSTAR First-Strand RT-PCR Kit (Stratagene, 200420). Primers were used for the following genes: Hes1, Hes2, Hes3, Hes5, Hes6, Hey2; Hes7
Notch signaling regulates transcription of the Hes/Hey gene family, a group of genes implicated in the control of differentiation (Iso et al., J Cell Physiol 194:237-55, 2003). RT-PCR was used to assess mRNA regulation of these genes one hour after Notch activation in CNS stem cells. […] The ability of high concentrations of CNTF to inhibit Hes3 induction following Notch activation was dependent on JAK activity (FIG. 4e). In contrast, in the absence of added Notch ligand, Hes3 mRNA levels were elevated by high CNTF and the JAK inhibitor (FIG. 4e).
Conversely, treatment with ciliary neurotrophic factor (CNTF), a cytokine that opposes the signal transduction pathway downstream of Notch activation opposed the ability of D114 to induce Hes3 transcription. Immunohistochemical experiments were performed that documented D114, CNTF regulate Hes3 expression. Thus, at the protein expression level, D114 maintains and CNTF inhibits Hes3 expression.

[2] = in the presence of FGF2 for one week

CC(C)(C)c1nc2c3ccc(F)cc3c3c(=O)[nH]ccc3c2[nH]1 [JAK Inhibitor, 2-(1,1-Dimethylethyl)-9-fluoro-3,6-dihydro-7H-benz[h]-imidaz[4,5-f]isoquinolin-7-one]
CNS stem cell survival / plating efficiency ([1]; 5 days, versus FGF2 control, CNTF low 0.01, 0.1 ng/ml or high 20 ng/ml with JAK inhibitor): increased survival | effect on CNTF-induced STAT3 phosphorylation (STAT3; CNTF 20 ng/ml): selectively blocked Tyr705 but not Ser727 phosphorylation | STAT3 phosphorylation on Ser727 and Tyr705 (mES (D3) cells; 90 min): significant down-regulation | Oct4 expression (mES (D3) cells): down-regulated Oct4 | cell survival in a plating efficiency assay (mES (D3) cells): reduced it | enhancement of plating efficiency (adult rat SVZ stem cells): approx. 40% | Hes3 mRNA levels (Hes3): no effect on Hes3 mRNA

Delta-4: soluble Notch ligand Delta-4 (1389-D4) from R&D
plating efficiency ([1]; absence of insulin in the medium, five days): 125%±19.4 | concentration at which peak STAT3 phosphorylation was achieved (STAT3; dose response, Ser727): ~1 ng/mL | Oct4 expression (mES (D3) cells): did not affect Oct4 expression | cell survival in a plating efficiency assay (mES (D3) cells): did not significantly alter cell survival | colony size (adult rat SVZ stem cells; [2]): 278.5%±52.5 | plating efficiency (adult rat SVZ stem cells; [2]): 1050%±273.8 | Hes3 mRNA levels (Hes3): increases its transcription | Hes3 expression at the protein expression level (Hes3; immunohistochemical): maintains
